Legend:
[1] = molecular target: panel of human cytochrome P450s, receptors, and ion channels (Homo sapiens, UniProt P20309); settings: assayed at 10 μM
[2] = molecular target: panel of human cytochrome P450s, receptors, and ion channels (Homo sapiens, UniProt P21554); settings: assayed at 10 μM
[3] = molecular target: panel of human cytochrome P450s, receptors, and ion channels (Rattus norvegicus, UniProt P15823); settings: assayed at 10 μM
[4] = molecular target: panel of human cytochrome P450s, receptors, and ion channels (Rattus norvegicus, UniProt P43140); settings: assayed at 10 μM
[5] = molecular target: panel of human cytochrome P450s, receptors, and ion channels (Homo sapiens, UniProt P02708); settings: assayed at 10 μM
panel of human cytochrome P450s, receptors, and ion channels (Homo sapiens, UniProt P02708), sequence (P02708 21-457): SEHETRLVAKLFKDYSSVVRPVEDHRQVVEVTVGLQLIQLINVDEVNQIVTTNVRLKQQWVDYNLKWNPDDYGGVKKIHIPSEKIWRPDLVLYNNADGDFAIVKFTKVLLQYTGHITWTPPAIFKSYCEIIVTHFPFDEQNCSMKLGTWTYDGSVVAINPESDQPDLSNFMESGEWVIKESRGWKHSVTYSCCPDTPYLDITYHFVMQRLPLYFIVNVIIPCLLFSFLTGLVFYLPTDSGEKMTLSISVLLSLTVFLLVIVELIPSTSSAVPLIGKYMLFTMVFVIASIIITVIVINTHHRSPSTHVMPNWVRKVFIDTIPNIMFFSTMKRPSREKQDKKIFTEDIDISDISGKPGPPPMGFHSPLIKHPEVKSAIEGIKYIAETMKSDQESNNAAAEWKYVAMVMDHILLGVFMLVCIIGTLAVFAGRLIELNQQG

[6] = molecular target: panel of human cytochrome P450s, receptors, and ion channels (Homo sapiens, UniProt P35408); settings: assayed at 10 μM
[7] = molecular target: panel of human cytochrome P450s, receptors, and ion channels (Homo sapiens, UniProt P23975); settings: assayed at 10 μM
panel of human cytochrome P450s, receptors, and ion channels (Homo sapiens, UniProt P23975), sequence (P23975 whole entry): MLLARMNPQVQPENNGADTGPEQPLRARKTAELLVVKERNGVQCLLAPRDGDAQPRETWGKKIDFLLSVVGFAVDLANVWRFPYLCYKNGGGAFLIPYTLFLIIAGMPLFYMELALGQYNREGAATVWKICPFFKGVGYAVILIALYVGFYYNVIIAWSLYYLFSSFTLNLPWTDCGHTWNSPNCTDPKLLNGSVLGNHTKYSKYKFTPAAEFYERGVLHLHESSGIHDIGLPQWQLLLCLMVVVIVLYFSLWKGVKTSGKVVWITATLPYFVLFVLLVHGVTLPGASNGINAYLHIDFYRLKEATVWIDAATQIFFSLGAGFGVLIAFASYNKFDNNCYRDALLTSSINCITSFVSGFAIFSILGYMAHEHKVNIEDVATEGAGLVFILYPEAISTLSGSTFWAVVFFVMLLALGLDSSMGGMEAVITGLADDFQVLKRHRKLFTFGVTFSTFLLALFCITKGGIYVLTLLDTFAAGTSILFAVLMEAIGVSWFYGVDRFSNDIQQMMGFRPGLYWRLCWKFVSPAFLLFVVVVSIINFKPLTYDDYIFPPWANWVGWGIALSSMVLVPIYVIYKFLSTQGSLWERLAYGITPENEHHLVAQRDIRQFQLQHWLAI

[8] = molecular target: panel of human cytochrome P450s, receptors, and ion channels (Homo sapiens, UniProt P29274); settings: assayed at 10 μM
panel of human cytochrome P450s, receptors, and ion channels (Homo sapiens, UniProt P29274), sequence (P29274 whole entry): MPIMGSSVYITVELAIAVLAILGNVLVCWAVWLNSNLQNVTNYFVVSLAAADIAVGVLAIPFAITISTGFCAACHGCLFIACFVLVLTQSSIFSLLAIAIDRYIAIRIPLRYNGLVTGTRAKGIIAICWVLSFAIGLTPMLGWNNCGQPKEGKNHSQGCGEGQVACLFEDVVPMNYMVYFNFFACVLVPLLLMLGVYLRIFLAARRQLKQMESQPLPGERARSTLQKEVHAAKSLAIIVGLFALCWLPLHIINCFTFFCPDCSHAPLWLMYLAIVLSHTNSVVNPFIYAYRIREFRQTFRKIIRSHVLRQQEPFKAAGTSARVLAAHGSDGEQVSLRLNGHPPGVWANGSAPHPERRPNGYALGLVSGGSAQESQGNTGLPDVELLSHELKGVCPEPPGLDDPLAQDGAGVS

[9] = molecular target: panel of human cytochrome P450s, receptors, and ion channels (Homo sapiens, UniProt P08588); settings: assayed at 10 μM
[10] = molecular target: panel of human cytochrome P450s, receptors, and ion channels (Homo sapiens, UniProt P30542); settings: assayed at 10 μM
panel of human cytochrome P450s, receptors, and ion channels (Homo sapiens, UniProt P30542), sequence (P30542 whole entry): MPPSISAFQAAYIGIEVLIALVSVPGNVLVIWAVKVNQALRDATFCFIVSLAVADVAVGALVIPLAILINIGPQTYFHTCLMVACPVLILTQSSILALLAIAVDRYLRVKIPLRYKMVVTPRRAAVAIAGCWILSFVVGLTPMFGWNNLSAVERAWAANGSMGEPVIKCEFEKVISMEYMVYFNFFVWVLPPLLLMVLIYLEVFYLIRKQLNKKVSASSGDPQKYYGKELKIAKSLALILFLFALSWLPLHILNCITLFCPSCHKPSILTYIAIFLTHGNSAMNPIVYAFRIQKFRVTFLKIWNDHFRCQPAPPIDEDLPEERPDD

[11] = molecular target: panel of human cytochrome P450s, receptors, and ion channels (Homo sapiens, UniProt P21728); settings: assayed at 10 μM
panel of human cytochrome P450s, receptors, and ion channels (Homo sapiens, UniProt P21728), sequence (P21728 whole entry): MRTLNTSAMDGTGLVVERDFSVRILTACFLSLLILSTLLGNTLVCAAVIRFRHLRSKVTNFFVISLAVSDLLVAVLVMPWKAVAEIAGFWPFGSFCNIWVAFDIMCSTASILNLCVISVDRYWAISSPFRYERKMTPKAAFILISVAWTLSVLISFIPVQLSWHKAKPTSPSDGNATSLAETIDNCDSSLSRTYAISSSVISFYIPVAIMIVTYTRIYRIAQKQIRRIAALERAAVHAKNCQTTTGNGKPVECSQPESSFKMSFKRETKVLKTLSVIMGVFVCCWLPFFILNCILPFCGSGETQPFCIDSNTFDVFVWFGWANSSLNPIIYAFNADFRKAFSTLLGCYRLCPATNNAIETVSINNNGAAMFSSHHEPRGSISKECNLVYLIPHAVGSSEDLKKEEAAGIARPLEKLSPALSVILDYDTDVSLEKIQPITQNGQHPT

[12] = molecular target: panel of human cytochrome P450s, receptors, and ion channels (Homo sapiens, UniProt P35367); settings: assayed at 10 μM
panel of human cytochrome P450s, receptors, and ion channels (Homo sapiens, UniProt P35367), sequence (P35367 whole entry): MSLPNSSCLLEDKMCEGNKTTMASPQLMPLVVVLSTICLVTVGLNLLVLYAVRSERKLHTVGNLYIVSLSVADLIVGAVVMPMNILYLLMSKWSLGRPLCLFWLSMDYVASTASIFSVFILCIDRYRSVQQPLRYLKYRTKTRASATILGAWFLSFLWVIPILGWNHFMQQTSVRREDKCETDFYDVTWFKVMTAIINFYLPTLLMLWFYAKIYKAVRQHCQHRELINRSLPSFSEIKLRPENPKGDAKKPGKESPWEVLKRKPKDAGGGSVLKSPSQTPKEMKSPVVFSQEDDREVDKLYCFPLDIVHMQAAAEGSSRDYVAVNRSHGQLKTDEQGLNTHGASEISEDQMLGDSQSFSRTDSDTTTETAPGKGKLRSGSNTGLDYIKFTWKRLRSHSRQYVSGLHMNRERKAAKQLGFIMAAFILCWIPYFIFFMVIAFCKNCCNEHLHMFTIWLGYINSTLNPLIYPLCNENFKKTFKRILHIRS

[13] = system: panel of human cytochrome P450s, receptors, and ion channels
[14] = molecular target: panel of human cytochrome P450s, receptors, and ion channels (Homo sapiens, UniProt P14416); settings: assayed at 10 μM
panel of human cytochrome P450s, receptors, and ion channels (Homo sapiens, UniProt P14416), sequence (P14416 whole entry): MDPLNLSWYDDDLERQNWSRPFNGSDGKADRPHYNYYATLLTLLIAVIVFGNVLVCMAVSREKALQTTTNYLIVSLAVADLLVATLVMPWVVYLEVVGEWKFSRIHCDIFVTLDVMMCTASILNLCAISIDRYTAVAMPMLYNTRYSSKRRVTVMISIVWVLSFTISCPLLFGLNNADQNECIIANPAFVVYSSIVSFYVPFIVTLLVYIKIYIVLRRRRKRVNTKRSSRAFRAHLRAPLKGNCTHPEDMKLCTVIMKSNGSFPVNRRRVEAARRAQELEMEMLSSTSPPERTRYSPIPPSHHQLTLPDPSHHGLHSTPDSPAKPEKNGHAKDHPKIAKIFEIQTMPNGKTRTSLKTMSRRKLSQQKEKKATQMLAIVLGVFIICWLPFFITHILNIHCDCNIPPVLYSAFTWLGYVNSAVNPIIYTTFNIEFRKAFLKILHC

[15] = molecular target: panel of human cytochrome P450s, receptors, and ion channels (Homo sapiens, UniProt P41595); settings: assayed at 10 μM
[16] = molecular target: panel of human cytochrome P450s, receptors, and ion channels (Homo sapiens, UniProt P08172); settings: assayed at 10 μM
[17] = molecular target: panel of human cytochrome P450s, receptors, and ion channels (Homo sapiens, UniProt P35372); settings: assayed at 10 μM
panel of human cytochrome P450s, receptors, and ion channels (Homo sapiens, UniProt P35372), sequence (P35372 whole entry): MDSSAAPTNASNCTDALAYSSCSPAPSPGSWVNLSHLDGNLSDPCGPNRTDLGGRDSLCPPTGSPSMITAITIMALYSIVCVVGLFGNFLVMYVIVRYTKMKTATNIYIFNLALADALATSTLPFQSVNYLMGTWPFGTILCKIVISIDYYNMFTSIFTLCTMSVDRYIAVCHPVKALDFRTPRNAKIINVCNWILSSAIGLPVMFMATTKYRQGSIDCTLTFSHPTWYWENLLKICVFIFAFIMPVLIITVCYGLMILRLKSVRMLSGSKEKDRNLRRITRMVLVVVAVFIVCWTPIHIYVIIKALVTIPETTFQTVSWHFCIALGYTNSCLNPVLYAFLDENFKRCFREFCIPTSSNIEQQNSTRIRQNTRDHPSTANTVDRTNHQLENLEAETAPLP

[18] = molecular target: panel of human cytochrome P450s, receptors, and ion channels (Homo sapiens, UniProt Q99720); settings: assayed at 10 μM
[19] = molecular target: panel of human cytochrome P450s, receptors, and ion channels (Homo sapiens, UniProt P07550); settings: assayed at 10 μM
panel of human cytochrome P450s, receptors, and ion channels (Homo sapiens, UniProt P07550), sequence (P07550 whole entry): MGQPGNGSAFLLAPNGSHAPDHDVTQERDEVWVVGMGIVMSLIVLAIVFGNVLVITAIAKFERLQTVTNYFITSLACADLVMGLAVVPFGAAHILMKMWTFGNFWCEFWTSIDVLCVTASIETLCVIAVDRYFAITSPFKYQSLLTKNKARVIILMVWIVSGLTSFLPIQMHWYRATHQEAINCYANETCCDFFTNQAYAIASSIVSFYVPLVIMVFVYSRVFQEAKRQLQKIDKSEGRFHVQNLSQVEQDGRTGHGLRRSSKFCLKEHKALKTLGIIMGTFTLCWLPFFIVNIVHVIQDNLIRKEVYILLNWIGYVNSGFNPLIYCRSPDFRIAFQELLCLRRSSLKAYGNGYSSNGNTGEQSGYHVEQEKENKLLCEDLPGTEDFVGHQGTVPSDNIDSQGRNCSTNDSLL

[20] = molecular target: panel of human cytochrome P450s, receptors, and ion channels (Homo sapiens, UniProt P08913); settings: assayed at 10 μM
panel of human cytochrome P450s, receptors, and ion channels (Homo sapiens, UniProt P08913), sequence (P08913 whole entry): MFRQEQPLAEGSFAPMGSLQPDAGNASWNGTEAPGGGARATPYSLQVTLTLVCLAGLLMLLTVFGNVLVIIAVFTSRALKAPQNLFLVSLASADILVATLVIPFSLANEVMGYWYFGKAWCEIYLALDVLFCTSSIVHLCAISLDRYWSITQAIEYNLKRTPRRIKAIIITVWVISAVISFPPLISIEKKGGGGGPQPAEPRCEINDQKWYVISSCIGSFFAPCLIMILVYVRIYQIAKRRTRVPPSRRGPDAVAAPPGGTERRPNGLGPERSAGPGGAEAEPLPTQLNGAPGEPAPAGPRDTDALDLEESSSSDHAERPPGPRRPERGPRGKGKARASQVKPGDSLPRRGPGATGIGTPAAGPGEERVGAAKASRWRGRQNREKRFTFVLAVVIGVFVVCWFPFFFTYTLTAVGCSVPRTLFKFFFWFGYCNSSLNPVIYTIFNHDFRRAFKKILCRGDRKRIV

CYP450 3A4 = CYP450 3A4 (Homo sapiens, UniProt P08684); assay: Cytochrome P450 inhibition, CYP3A4 (Eurofins Panlabs panel); format: in vitro ADME; settings: assayed at 10 μM
CYP450 3A4, sequence (P08684 whole entry): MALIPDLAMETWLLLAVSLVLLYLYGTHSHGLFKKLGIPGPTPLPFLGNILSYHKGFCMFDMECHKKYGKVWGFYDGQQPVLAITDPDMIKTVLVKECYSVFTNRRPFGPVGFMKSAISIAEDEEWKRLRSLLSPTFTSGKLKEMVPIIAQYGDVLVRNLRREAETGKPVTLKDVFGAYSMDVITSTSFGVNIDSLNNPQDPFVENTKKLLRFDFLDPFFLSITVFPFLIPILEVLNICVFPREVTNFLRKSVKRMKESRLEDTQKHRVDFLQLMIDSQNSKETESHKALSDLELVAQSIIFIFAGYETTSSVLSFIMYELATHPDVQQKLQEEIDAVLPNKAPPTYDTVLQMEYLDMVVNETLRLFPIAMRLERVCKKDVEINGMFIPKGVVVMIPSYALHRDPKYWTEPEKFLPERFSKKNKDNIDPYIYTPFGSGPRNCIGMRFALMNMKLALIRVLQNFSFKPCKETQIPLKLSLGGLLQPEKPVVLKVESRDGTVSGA
Method: (§1) Cytochrome P450 Inhibition.
(§2) Assessment of off-target effects of priority compounds. To assess potential off-target effects, we will evaluate prioritized hits validated by in vivo testing in the Eurofins Panlabs HitProfilingScreen+CYP450 assay panel, which is performed by Eurofins as a fee for service. The assay panel of consists of assays for 30 receptors and transporters plus the five major CYP450 enzymes (1A2, 2C19, 2C9, 2D6, 3A4).

CYP450 2C9 = CYP450 2C9 (Homo sapiens, UniProt P11712); assay: Cytochrome P450 inhibition, CYP2C9 (Eurofins Panlabs panel); format: in vitro ADME; settings: assayed at 10 μM
Method: as §1, §2

CCC(Oc1ccc(Cl)c(Cl)c1Cl)C(=O)NCc1ccc(F)cc1 (centres unmarked) [MBX-4532]
Muscarinic M3 [1]: 8 | Cannabinoid CB1 [2]: 16 | Adrenergic α1B [3]: 6 | Adrenergic α1A [4]: 12 | Nicotinic Acetylcholine α1, Bungarotoxin [5]: −17 | Prostanoid EP4 [6]: −6 | Transporter, Norepinephrine (NET) [7]: 61 | Adenosine A2A [8]: 10 | Adrenergic β1 [9]: 2 | Adenosine A1 [10]: 15 | Dopamine D1 [11]: 0 | Histamine H1 [12]: 23 | Calcium Channel L-Type, Dihydropyridine ([13]; assayed at 10 μM): 56 | GABAA, Flunitrazepam, Central ([13]; assayed at 10 μM): −1 | GABAA, Muscimol, Central ([13]; assayed at 10 μM): 2 | Glutamate, NMDA, Phencyclidine ([13]; assayed at 10 μM): 29 | Imidazoline I2, Central ([13]; assayed at 10 μM): 27 | Nicotinic Acetylcholine αβ4 ([13]; assayed at 10 μM): 7 | Phorbol Ester ([13]; assayed at 10 μM): 5 | Potassium Channel [KATP] ([13]; assayed at 10 μM): 0 | Rolipram ([13]; assayed at 10 μM): 23 | Sodium Channel, Site 2 ([13]; assayed at 10 μM): 39 | specificity vs mammalian receptors and enzymes, including hERG ([13]; assessment in text): not specific enough | Dopamine D2S [14]: 11 | Serotonin (5-Hydroxytryptamine) 5-HT2B [15]: 59 | Muscarinic M2 [16]: 23 | Opiate μ (OP3, MOP) [17]: 26 | Sigma σ1 [18]: 70 | Adrenergic β2 [19]: 14 | Adrenergic α2A [20]: 23 | CYP450, 3A4 (CYP450 3A4): 13 | CYP450, 2C9 (CYP450 2C9): −30

— patent publication US20260248774A1, “INHIBITORS OF BACTERIAL TYPE III SECRETION SYSTEM” (MICROBIOTIX, INC., priority 2022, published 2026)
